The subject of assay [1] is HCT116 FOP control reporter cell line. Kind of assay: HCT116 FOP control vector reporter assay (non-functional TCF elements). It counts as cell-based. The conditions noted are these: HCT116 FOP control reporter cells, luciferase expression, 36 hours incubation, 50 μM to 15 nM, read-out: HCT116 FOPFlash IC50. The protocol:
(§1) In a parallel approach, HCT116 cells were cotransfected with the FOP control vector and pcDNA3. The FOP vector is identical to the TOP construct, but it contains instead of functional TCF elements a randomized, non-functional sequence. For this transfection a stable transfected cell line was generated as well.
(§2) In preparation of the assay, the two cell lines were plated 24 hrs before at 10000 cells per well of a 384 micro titre plate (MTP) in 30 μL growth medium. Selective inhibitory activity for small molecules on the mutated Wnt pathway was determined after parallel incubation of both (TOP and FOP) HCT116 reporter cell lines with a compound dilution series from 50 μM to 15 nM in steps of 3.16-fold dilutions in CAFTY buffer (130 mM NaCl, 5 mM KCl, 20 mM HEPES, 1 mM MgCl2, 5 mM NaHCO3, pH 7.4) containing 2 mM Ca^2+ and 0.01% BSA. The compounds were thereby serially prediluted in 100% DMSO and thereafter in addition 50 fold into the CAFTY compound dilution buffer (described above). From this dilution 10 μL were added to the cells in 30 μL growth medium and incubated for 36 hours at 37° C. and 5% CO2. Thereafter luciferase assay buffer (1:1 mixture of luciferase substrate buffer (20 mM Tricine, 2.67 mM MgSO4, 0.1 mM EDTA, 4 mM DTT, 270 μM Coenzyme A, 470 μM Luciferin, 530 μM ATP, ph adjusted to pH 7.8 with a sufficient volume of 5M NaOH) and Triton buffer (30 mL Triton X-100, 115 mL glycerol, 308 mg Dithiothreitol, 4.45 g Na2HPO4.2 H2O, 3.03 g Tris.HCL, ad 1 l H20, pH 7.8) was added as equal volume to the compound solution on the cells to determine luciferase expression as a measure of Wnt signaling activity in a luminometer.

Assay [2] concerns constitutive active colorectal cancer cell (CRC) Wnt pathway. Kind of assay: HCT116 Super TopFlash cellular reporter assay (constitutive active Wnt pathway). Conditions: HCT116 TOP reporter cells, luciferase expression, 36 hours incubation, 50 μM to 15 nM. The assay is classed as cell-based. The protocol: In order to discover and characterize small molecules which inhibit the constitutive active colorectal cancer cell (CRC) Wnt pathway, a cellular reporter assay was employed. The corresponding assay cell was generated by transfection of the colorectal cancer cell line HCT116 (ATCC, #CCL-247) with the Super TopFlash vector (Morin, Science 275, 1997, 1787-1790; Molenaar et al., Cell 86 (3), 1996, 391-399). The HCT116 cell line is cultivated at 37° C. and 5% CO2 in DMEM/F-12 (Life Technologies, #11320-074), supplemented with 2 mM glutamine, 20 mM HEPES, 1.4 mM pyruvate, 0.15% Na-bicarbonate and 10% foetal bovine serum (GIBCO, #10270), this cancer cell line is pathophysiological relevant since it carries a deletion of position S45 in the β-catenin gene, leading to constitutive active Wnt signaling. Stable transfectants were generated by cotransfection with pcDNA3 and selection of stable transfected cells with 1 mg/ml G418.
as §1, §2

Structures can show the parent of a compound that is named as a salt. Where two headings read alike, the source gives them in different places. A value given as a limit tells only on which side of the number the result lay.

For the compound `CC(C(=O)Nc1cc(NC(=O)c2ccc(-c3ccccc3)cc2)ccc1C(F)(F)F)N1CCOCC1` (single isomer, unassigned) [Example 180, N-(3-{[(2S*)-2-(morpholin-4-yl)propanoyl]amino}-4-(trifluoromethyl)phenyl] biphenyl-4-carboxamide], the results for the IC50 in assay [1] and in assay [2] were at least 50 µM and 0.301 µM, respectively.
For the compound `NC(C(=O)Nc1cc(NC(=O)c2ccc(-c3ccccc3)cc2)ccc1OC(F)(F)F)C(F)(F)F` (stereo not shown) [Example 135, N-{3-[(333-trifluoroalanyl)amino]-4-[trifluoromethoxy)phenyl) biphenyl-4-carboxamide], the IC50 in assay [1] (Homo sapiens, HCT-116, 36 h) was at least 50 µM; in assay [2] (Homo sapiens, HCT-116, 36 h), 0.592 µM.
The corresponding values for `O=C(CN1C[C@H]2C[C@@H]1CO2)Nc1cc(C(=O)Nc2ccc(-c3ccccc3)cc2)ccc1OC1CC1` [Example 181, N-(biphenyl-4-yl)-4-(cyclopropyloxy)-3-{[(1R,4R)-2-oxa-5-azabicyclo[2.2.1]hept-5-ylacetyl]amino}benzamide] are at least 50 µM and 0.302 µM.
The corresponding values for `COc1ccc(NC(=O)c2ccc(-c3ccccc3)cc2)cc1NC(=O)CN1CCOCC1` [Example 52, N-{4-methoxy-3-[(morpholin-4-ylacetyl)amino]phenyl}biphenyl-4-carboxamide] are at least 50 µM and 0.47 µM.
The corresponding values for `COc1cc(Cl)c(C(=O)Nc2ccc(-c3ccccc3)cc2)cc1NC(=O)C(C)N1CCOCC1` (stereo not shown) [Example 5, N-(biphenyl-4-yl)-2-chloro-4-methoxy-5-{[2-(morpholin-4-yl)propanoyl]amino}benzamide] are at least 50 µM and 0.507 µM.
As to `NCCCOc1ccc(C(=O)Nc2ccc(-c3ccccc3)cc2)cc1NC(=O)C1(N2CCOCC2)CC1` [Example 89, 4-(3-aminopropoxy)-N-(biphenyl-4-yl)-3-({[1-(morpholin-4-yl)cyclopropyl]carbonyl}amino)benzamide hydrochloride (1:1)], the IC50 in assay [1] (Homo sapiens, HCT-116, 36 h) turned out to be 20.2 µM; in assay [2] (Homo sapiens, HCT-116, 36 h), 0.676 µM.
For `NC(=O)COc1ccc(NC(=O)c2ccc(-c3ccccc3)cc2)cc1NC(=O)CN1CCOCC1` [Example 211, N-{4-(2-amino-2-oxoethoxy)-3-[(morpholin-4-ylacetyl)amino]phenyl} biphenyl-4-carboxamide], in that order: at least 50 µM and 3.9 µM.
The corresponding values for `COc1ccc(C(=O)Nc2ccc(-c3ccccc3)cc2)cc1NC(=O)CN1CCC(OC)C1` (stereo not shown) [Example 202, N-(biphenyl-4-yl)-4-methoxy-3-{[(3-methoxypyrrolidin-1-yl)acetyl]amino}benzamide] are at least 50 µM and 1.9 µM.
On to `COc1ccc(C(=O)Nc2ccc(-c3ccccc3)cc2)cc1NC(=O)C1(N2CCN(C)CC2)CC1` [Example 133, N-(biphenyl-4-yl)-4-methoxy-3-({[1-(4-methylpiperazin-1-yl)cyclopropyl]carbonyl}amino)benzamide], for which the IC50 in assay [1] is 30 µM; in assay [2] it was 0.362 µM.
With `COc1ccc(NC(=O)c2ccc(-c3ccc(NC(C)=O)cc3)cc2)cc1NC(=O)CN1CCOCC1` [Example 118, 4′-acetamido-N-{4-methoxy-3-[(morpholin-4-ylacetyl)amino]phenyl}biphenyl-4-carboxamide], the IC50 was at least 50 µM in assay [1] (Homo sapiens, HCT-116, 36 h) and 0.96 µM in assay [2] (Homo sapiens, HCT-116, 36 h).
For `O=C(Nc1ccc(-c2ccccc2)cc1)c1ccc(Br)c(NC(=O)C2(N3CCOCC3)CC2)c1` [Example 152, N-(biphenyl-4-yl)-4-bromo-3-({[1-(morpholin-4-yl)cyclopropyl]carbonyl}amino)benzamide], in that order: 29 µM and 0.0338 µM.
As to `O=C(CNCCO)Nc1cc(NC(=O)c2ccc(-c3ccccc3)cc2)ccc1OC(F)(F)F` [Example 140, N-[3-{[N-(2-hydroxyethyl)glycyl]amino}-4-(trifluoromethoxy)phenyl] biphenyl-4-carboxamide], the IC50 came to 25 µM in assay [1] (Homo sapiens, HCT-116, 36 h) and 1.7 µM in assay [2] (Homo sapiens, HCT-116, 36 h).
The corresponding values for `COc1ccc(NC(=O)c2ccc(-c3ccccc3)cc2)cc1N(C)C(=O)CN1CCOCC1` [Example 65, N-{4-methoxy-3-[methyl(morpholin-4-ylacetyl)amino]phenyl}biphenyl-4-carboxamide] are 28 µM and 2.2 µM.
In the case of `COc1ccc(NC(=O)c2ccc(-c3ccccc3)cc2)cc1NC(=O)CN1CCN(C)CC1` [Example 47, N-(4-methoxy-3-{[(4-methylpiperazin-1-yl)acetyl]amino}phenyl)biphenyl-4-carboxamide], the IC50 in assay [1] (Homo sapiens, HCT-116, 36 h) worked out at 33.5 µM; in assay [2] (Homo sapiens, HCT-116, 36 h), 0.718 µM.
For `COc1ccc(C(=O)Nc2ccc(-c3ccccc3)cc2)cc1NC(=O)C1(N2CCN(C3CC3)CC2)CC1` [Example 156, N-(biphenyl-4-yl)-3-({[1-(4-cyclopropylpiperazin-1-yl)cyclopropyl)carbonyl}amino)-4-methoxybenzamide], in that order: at least 50 µM and 0.0527 µM.
For `COc1ccc(NC(=O)c2ccc(-c3ccccc3)cc2)cc1NC(=O)CN1CCOC[C@H]1CCO` [Example 44, N-[3-({[(3R)-3-(2-hydroxyethyl)morpholin-4-yl]acetyl}amino)-4-methoxyphenyl]biphenyl-4-carboxamide], in that order: at least 50 µM and 2.9 µM.
Take `Cc1ccc(C(=O)Nc2ccc(-c3ccccc3)cc2)cc1NC(=O)C1(N2CCOCC2)CC1` [Example 159, N-(biphenyl-4-yl)-4-methyl-3-({[1-(morpholin-4-yl)cyclopropyl)carbonyl}amino)benzamide]: the concentration for half-maximal inhibition (IC50) in assay [1] (Homo sapiens, HCT-116, 36 h) is at least 50 µM; in assay [2] (Homo sapiens, HCT-116, 36 h), 0.0705 µM.
The corresponding values for `COc1ccc(C(=O)Nc2ccc(-c3ccccc3)cc2)cc1NC(=O)[C@@H](C)N1CCOCC1` [Example 153, N-(biphenyl-4-yl)-4-methoxy-3-{[(2R)-2-(morpholin-4-yl)propanoyl]amino} benzamide] are at least 50 µM and 0.044 µM.
The corresponding values for `COc1ccc(NC(=O)c2ccc(-c3ccccc3)cc2)cc1NC(=O)CN1CCC(O)CC1` [Example 45, N-(3-{[(4-hydroxypiperidin-1-yl)acetyl]amino}-4-methoxyphenyl)biphenyl-4-carboxamide] are at least 50 µM and 3.85 µM.
Regarding `O=C(CN1C[C@H]2C[C@@H]1CO2)Nc1cc(C(=O)Nc2ccc(-c3ccccc3)cc2)ccc1C(F)(F)F` [Example 190, N-(biphenyl-4-yl)-3-{[(1R,4R)-2-oxa-5-azabicyclo[2.2.1]hept-5-ylacetyl]amino}-4-(trifluoromethyl)benzamide], the IC50 in assay [1] (Homo sapiens, HCT-116, 36 h) is at least 50 µM; in assay [2] (Homo sapiens, HCT-116, 36 h), 0.568 µM.
For `CN(C)CCNC(=O)c1ccc(C(=O)Nc2ccc(-c3ccccc3)cc2)cc1NC(=O)CN1CCOCC1` [Example 105, formic acid —N^4-(biphenyl-4-yl)-N^1-[2-(dimethylamino)ethyl]-2-[(morpholin-4-ylacetyl)amino]terephthalamide (1:1)], in that order: 7.8 µM and 0.552 µM.
For `COc1ccc(NC(=O)c2ccc(-c3ccccc3)cc2)cc1NC(=O)[C@@H](C)N1CCOCC1` [Example 55, N-(4-methoxy-3-{[(2R)-2-(morpholin-4-yl)propanoyl]amino}phenyl)biphenyl-4-carboxamide], in that order: at least 50 µM and 0.834 µM.
In the case of `COc1ccc(NC(=O)c2ccc(-c3cc(F)cc(F)c3)cc2)cc1NC(=O)CN1CCOCC1` [Example 199, 3′,5′-difluoro-N-{4-methoxy-3-[(morpholin-4-ylacetyl)amino]phenyl} biphenyl-4-carboxamide], the IC50 was at least 50 µM in assay [1] (Homo sapiens, HCT-116, 36 h) and 1.75 µM in assay [2] (Homo sapiens, HCT-116, 36 h).

The values above are taken from patent US20160052898A1, “NOVEL COMPOUNDS” (BAYER PHARMA AKTIENGESELLSCHAFT, priority 2013, published 2016).
